Laboratory results: patent US8630703B2, “Treatment utilizing hydrophobic weak bases chemotherapeutic agents and illumination” (Technion Research & Development Foundation Limited, priority 2011, dated 2014)
Blank lines part the entries; values can stand above or below the molecule they belong to.

Legend:
A549/K1.5 cells [1] = assay: Live cell fluorescent imaging (lysosomal localization and photodestruction); assay type: cell-based, Human; conditions: for effect on lysosomal accumulation of C-1330: pre-incubation 10 mM ammonium chloride 30 min or 1 μM bafilomycin A1 60 min
Description: (§1) Lysosomes and mitochondria were stained by incubating the cells 100 nM LysoTracker® Red or 100 nM MitoTracker® Red, respectively, for 1 hour. For subcellular localization of C-1330, cells were also stained with 10 μM C-1330 for 30 minutes.
(§2) Nuclear staining was performed prior to fluorescence imaging by replacing the growth medium with medium containing 2 μg/ml Hoechst 33342, followed by incubation for 10 minutes. Prior to nuclear staining, A549/K1.5 cells were incubated for 1 hour with 10 μM fumitremorgin C (FTC) to prevent efflux of Hoechst 33342 by ABCG2.
(§3) Live cell fluorescent imaging was performed using an Axiovert 200 inverted fluorescence microscope (Carl Zeiss) equipped with a digital camera. […] Light intensity was maintained at 12.5% of the maximum. The magnification used was ×630.
(§4) Cells were pre-incubated with 10 mM ammonium chloride for 30 minutes or with 1 μM bafilomycin A1 for 60 minutes, prior to being incubated with 10 μM C-1330 for 30 minutes as described hereinabove. Ammonium chloride and bafilomycin A1 remained present during the incubation with C-1330.
A549/K1.5 cells were incubated with 10 μM doxorubicin for 30 minutes, and then observed and illuminated (at 470 nm) by live cell fluorescent imaging as described in the Materials and Methods section. Upon illumination, the cells were photographed every second, in order to observe changes in the cells over time.

[2] = test system: chicken chorioallantoic membrane (CAM) vasculature; assay: Chorioallantoic membrane (CAM) model of photodynamic therapy; assay type: in vivo; conditions: for vascular effect in illuminated area: 420 nm
Description: Fertilized chicken eggs (Animalco AG) were labeled and transferred into a hatching incubator with a relative air humidity of 65% and a temperature of 37° C. The incubator was equipped with an automatic fan (Savimat). On embryonic development day (EDD) 3, a hole of approximately 3 mm in diameter was opened in the eggshell above the air pouch of the egg and covered with Parafilm® wrapping film (Pechiney) to prevent dehydration and possible infections. The eggs were then returned to the incubator in a static position until use. On EDD 11, the hole in the shell was extended to a diameter of approximately 3 cm in order to provide better access to the chorioallantoic membrane (CAM) during experiments.
Eggs were placed under an Eclipse 600 FN epi-fluorescence microscope equipped with a Plan Apo 4/0.2, working distance 20 objective (Nikon). Microscopic observation and illumination of a region of the CAM was performed as described previously [Lim et al., Photochem Photobiol 2010, 86:397-402; Lim et al., J Med Chem 2010, 53:2865-2874; Nowak-Sliwinska et al., Angiogenesis 2010, 13:281-292]. Illumination was provided by a 100 W high pressure Hg-arc lamp. Light doses were adjusted with neutral density filters and measured with a calibrated Field-Master GS power meter (Coherent Inc.). Fluorescence images were acquired with an F-view II 12-bit monochrome Peltier-cooled digital CCD camera driven with analySIS DOCU software (Soft Imaging System GmbH).
For excitation and detection of imidazoacridinones (IAs) or sunitinib, the microscope was equipped with a filter set (Nikon) characterized by excitation wavelengths of 420±20 nm and emission wavelengths of >470 nm,
After the treatment the eggs were numbered, covered and returned to the incubator. Each treatment group included 5 eggs.
Chorioallantoic membranes (CAMs) were intravenously injecting chorioallantoic membranes with 20 μl of a solution of FITC-dextran (20 kDa, 25 mg/ml). Fluorescence angiography was then performed using light from an Hg-arc lamp and light filters (Nikon) which provided excitation wavelengths of 470±20 nm and emission wavelengths of >520 nm for observing the fluorescence. In order to increase the quality of the recorded angiographs, a light absorber, in the form of India ink, was injected (30 μl) into the extra-embryonic cavity. The purpose of this second injection was to decrease the influence of the CAM auto-fluorescence background, which changes rapidly with time due to the embryo's movement. The India ink was filtered shortly before injection, using a sterile cellulose acetate membrane with 0.2 μm pores (Renner GmbH).
Photodynamic therapy (PDT) was performed at embryo development day (EDD) 11, at which stage the CAM is fully developed and contains a vessel network with a regular capillary plexus. The imidazoacridinones were intravenously injected into the main vessel of the CAM through a 33-gauge needle fitted to a 100 μl syringe (Hamilton), at a concentration of 1 mg/ml and a volume of 100 μl, which corresponds to a dose of 100 μg, or approximately 10 mg/kg embryo body weight.
One minute after injection, a region of the CAM which contained vessels of diameters in a range of 5 to 70 μm was illuminated (420±20 nm) at a light dose of 20 J/cm^2 and an irradiance of […]. […]
The illuminated area was 0.02 cm^2, as delimited by an optical diaphragm. The fluorescence of sunitinib was visible in the vasculature of the CAMs prior to PDT.

[3] = Absorption, emission and excitation spectra; assay type: physicochemical; conditions: aqueous 0.9% NaCl
Description: Stock solutions containing sunitinib or the imidazoacridinones (IAs) C-1375 and C-1379 in 100% dimethyl sulfoxide were diluted with aqueous 0.9% NaCl solution under continuous stirring. Absorption spectra were recorded with a two-beam Cary 500 UV-VIS-NIR spectrophotometer (Varian) in 1 cm long Suprasil® quartz cuvettes (Hellma), at an average scan speed of 600 nm/minute, at 20° C. The steady state emission and excitation spectra were recorded with an LS 50B luminescence spectrometer (Perkin-Elmer).

A549 cells [4] = assay: XTT cytotoxicity assay with and without illumination
Description: (§5) Parental cells and their MDR (multi-drug resistant) sub-lines were seeded in 96-well plates (2×10^4 cells/well in 90 μl growth medium/well). […] Following incubation for 2 hours, the drug-containing medium was replaced by drug-free medium. The cells were then placed on an illuminator plate (Model 460, thin line series, S&S X-Ray Products Inc., Brooklyn, N.Y.) for 1 hour, thereby achieving a light dose of 5 J/cm^2 white light. After illumination, plates were further incubated for an additional 24 hours.
Cell viability was determined using an XTT (2,3-bis-(2-methoxy-4-nitro-5-sulfophenyl)-2H-tetrazolium-5-carboxanilide) Cell Proliferation Kit (Biological Industries). […] Results are presented as mean values of at least three independent experiments.

A549/K1.5 cells [5] = assay: as above; assay type: cell-based, Human; conditions: A549/K1.5
Description: Human non-small cell lung cancer A549 cells and their ABCG2-overexpressing MDR (multi-drug resistant) A549/K1.5 sub-line; ovarian carcinoma cell line 2008 and its stable MRP1-transfectant 2008/MRP1; and human non-small lung cancer cell line SW1573 and its ABCB1-overexpressing subline SW1573/2R160) were maintained in RPMI-1640 medium supplemented with 10% fetal bovine serum, 2 mM glutamine, 100 μg/ml penicillin and streptomycin (Biological Industries, Beth-Haemek, Israel) in a humid atmosphere containing 5% CO2 at 37° C.
as §5
Cell viability was determined using an XTT (2,3-bis-(2-methoxy-4-nitro-5-sulfophenyl)-2H-tetrazolium-5-carboxanilide) Cell Proliferation Kit (Biological Industries). The drug concentrations required to inhibit cell growth by 50% (i.e., IC50 values) were determined from the cell survival curves in the absence and in the presence of illumination. Results are presented as mean values of at least three independent experiments.

[6] = test system: Human A2780 ovarian carcinoma tumors; assay: PDT of tumors transplanted onto CAM; assay type: in vivo; conditions: 12 μg per embryo i.v., 420 nm 34 J/cm^2, two rounds; vs C-1379 without illumination
Description: Human A2780 ovarian carcinoma cells were used to establish tumor xenografts in the CAM. Tumor spheroids were grown by a hanging drop technique, resulting in spheroids with a predefined size. A2780 cells were suspended in medium containing 20% Methocel™ (Sigma-Aldrich, St. Louis, USA), and 50 μl drops (1×10^6 cells/drop) were dispensed on the internal part of the lid of a Petri dish. After 24 hours, spheroids were harvested and placed on the CAM at embryonic development day (EDD) 7. Two transplanted human A2780 ovarian carcinoma tumor spheroids, containing 10^6 cells, were grown on a single CAM, and 300 μM C-1379 was injected intravenously at a concentration of 12 μg per embryo at EDD 11.
Prior to further treatment, both tumors were imaged by imidazoacridinone (C-1379) fluorescence angiography, as described hereinabove. One minute after C-1379 administration, one of the tumors was illuminated at a wavelength of 420 nm (34 J/cm^2, 70 mW/cm^2). 24 hours later, both tumors were visualized by FITC-dextran angiography, as described hereinabove, and by standard photography. Immediately thereafter, a second round of C-1379 intravenous administration and PDT (on one of the tumors) was performed as previously. The CAM was then incubated for two more days. […]

A549 cells [7] = assay: Live cell fluorescent imaging (lysosomal localization and photodestruction); assay type: cell-based, Human; conditions: pre-incubation 10 mM ammonium chloride 30 min or 1 μM bafilomycin A1 60 min
Description: as §1, §2, §3, §4
Monolayers of A549 cells were grown in glass-bottom plates and were washed in growth medium. The medium was then replaced with a special isotonic balanced salt solution lacking or containing either N,N′-dimethylthiourea (DMTU), a potent hydroxyl radical and hydrogen peroxide scavenger, L-histidine, a hydroxyl radical and singlet oxygen radical (^1O2) scavenger, or sodium azide, a singlet oxygen radical scavenger. The salt solution consisted of 10 mM HEPES pH 7.4, 120 mM NaCl, 5 mM KCl, 1 mM CaCl2, 1 mM MgCl2, and 25 mM glucose. After incubation for 1 hour, C-1330 was added to the aforementioned solution buffer for an additional 30 minutes, during which the scavengers remained present, in order to load lysosomes. The cells were then examined by fluorescent imaging as described hereinabove.

A549 cells [8] = assay: Lysosome quantification by LysoTracker Red fluorescence; assay type: cell-based, Human; conditions: for increase in lysosomal fluorescence compared to untreated cells: 20 μM
Description: A549 cells were seeded in 96-well plates at a concentration of 500 cells/well for the 48 hour chloroquine treatment, or at a concentration of 1000 cells/well for the 24 hour chloroquine treatment, in a total volume of 100 μl of medium per well. Following an overnight incubation, chloroquine was then added at the indicated concentrations for 24 or 48 hours. Lysosomes were then stained with LysoTracker® Red, detected by fluorescent imaging as described hereinabove, and quantified using EZQuant software.

SMILES: CCN(CC)CCNc1ccc2ncn3c4ccc(O)cc4c(=O)c1c23 [C-1311]
lysosomal photodestruction on co-treatment with ABCG2 inhibitor (A549/K1.5 cells [1]; MDR cells, 20 μM C-1311 + 10 μM fumitremorgin C, 2 hours, illumination): intense lysosomal photodestruction

SMILES: CCN(CC)CCCNc1ccc2nc(C)n3c4ccc(OC)cc4c(=O)c1c23 [C-1379]
vascular effect in illuminated area ([2]; 1 μg/embryo i.v., 20 J/cm^2, 24 hours after illumination): massive occlusion of the capillary network | vascular effect in illuminated area ([2]; 100 μg/embryo i.v., 20 J/cm^2, 1 minute after injection, 24 hours after treatment): vaso-occlusion within the illuminated area | Peak absorption [3]: 443 nm | Peak emission [3]: 554 nm | Peak excitation [3]: 447 nm | Fold sensitization (A549 cells [4]; control vs illumination): 32 | Survival at 3000 nM Control (A549 cells [4]; no illumination): 60 ± 1% | LD50 Control (A549 cells [4]; no illumination, 2 h drug, XTT 24 h later): 6.349 ± 0.867 µM | LD50 Illumination (A549 cells [4]; white light 1 hour (5 J/cm^2)): 199 ± 31 nM | Survival at 3000 nM Illumination (A549 cells [4]; white light illumination): 2 ± 0.3% | Fold sensitization (A549/K1.5 cells [5]; control vs illumination): 20 | LD50 Control (A549/K1.5 cells [5]; no illumination): 15.192 ± 0.58 µM | Survival at 3000 nM Control (A549/K1.5 cells [5]; no illumination): 82 ± 4% | LD50 Illumination (A549/K1.5 cells [5]; white light 1 hour (5 J/cm^2)): 747 ± 45 nM | Survival at 3000 nM Illumination (A549/K1.5 cells [5]; white light illumination): 7 ± 0.1% | effect on tumor growth [6]: inhibition of tumor growth | effect on tumor vasculature [6]: vaso-occlusion and destruction of tumor vasculature

SMILES: Cl.N [ammonium chloride]
effect on lysosomal accumulation of C-1330 (A549 cells [7]): completely abolished | effect on lysosomal accumulation of C-1330 (A549/K1.5 cells [1]; A549/K1.5): completely abolished

SMILES: CO/C1=C\C(C)=C\[C@@H](C)[C@@H](O)[C@@H](C)C/C(C)=C/C=C/[C@H](OC)[C@@H]([C@@H](C)[C@@H](O)[C@H](C)[C@@]2(O)C[C@@H](O)[C@H](C)[C@@H](C(C)C)O2)OC1=O [bafilomycin A1]
effect on lysosomal accumulation of C-1330 (A549 cells [7]): completely abolished | effect on lysosomal accumulation of C-1330 (A549/K1.5 cells [1]; A549/K1.5): completely abolished

SMILES: CCN(CC)CCCC(C)Nc1ccnc2cc(Cl)ccc12 (stereo not shown) [chloroquine]
increase in lysosomal fluorescence compared to untreated cells (A549 cells [8]; 24 hours): 8.4 fold | increase in lysosomal fluorescence compared to untreated cells (A549 cells [8]; 48 hours): 21.7 fold | increase in the lysosomes, dose relation (A549 cells [8]; 20, 50 or 100 μM, 24 hours): dose-dependent

SMILES: COc1cccc2c1C(=O)c1c(O)c3c(c(O)c1C2=O)C[C@@](O)(C(=O)CO)C[C@@H]3O[C@H]1C[C@H](N)[C@H](O)[C@H](C)O1 [doxorubicin]
lysosomal photodestruction upon illumination (A549/K1.5 cells [1]; A549/K1.5, 10 μM, 470 nm, 20 seconds of illumination): nearly all of the lysosomes had ruptured

location of drug fluorescence in CAM ([2]; administered intravenously): visible within the vasculature
SMILES: CCN(CC)CCNC(=O)c1c(C)[nH]c(/C=C2\C(=O)Nc3ccc(F)cc32)c1C [sunitinib, reference compound]
location of drug fluorescence in CAM ([2]; administered topically): visible exclusively outside the vasculature
